In PMC10518257 (Nature Cancer, 2023):
“And” between values parts separate entries of the source, which are not always exact repeats. Equal entries are not always repeated. Where two headings read alike, the source gives them in different places.

Legend:
[1] = system: Ba/F3 cells expressing KIF5B–RET^WT; assay: Growth inhibition assay in Ba/F3 cells (CellTiter-Glo, 72 h); format: cell-based
[2] = system: LUAD-0002AS1 cells (KIF5B::RET); assay: Dose-response western blotting, EC50 for inhibition of protein phosphorylation; format: cell-based; settings: Homo sapiens, LUAD-0002AS1, 2 h, densitometry
[3] = Animal weight of tumor-bearing mice; settings: for Animal Weight (g), Mean: Ba/F3-KIF5B::RET tumor-bearing mice (Ext. Data Fig 8h); for Animal Weight: individual animals

COc1ccc(CN2C3CC2CN(c2ccc(-c4cc(OCC(C)(C)O)cn5ncc(C#N)c45)cn2)C3)cn1 [Selpercatinib]
GI50 ([1]; Ba/3-KIF5B-RET, replicate sets): 6.35 nM and 7.55 nM | GI50 ([1]; Mus musculus, BaF3, 72 h, read-out: GI50 value (Mean ± SD), Ba/F3-KIF5B::RET, CellTiter-Glo, 72 h): 6.68 ± 0.76 nM | GI50 ([1]; Mus musculus, BaF3, Ba/3-KIF5B-RET, replicate sets): 6.13 nM | EC50 ([2]; read-out: EC50 for Inhibition of Protein Phosphorylation (95% CI), AKT S473): 2 nM | EC50 ([2]; read-out: EC50 for Inhibition of Protein Phosphorylation (95% CI), ERK1/2 T202/Y204): 1.5 nM | EC50 ([2]; read-out: EC50 for Inhibition of Protein Phosphorylation (95% CI), MEK1/2 S217/S221): 1.3 nM | EC50 ([2]; read-out: EC50 for Inhibition of Protein Phosphorylation (95% CI), P70 RSK T421/S424): 1.4 nM | EC50 ([2]; read-out: EC50 for Inhibition of Protein Phosphorylation (95% CI), RET Y905): 0.4 nM | EC50 ([2]; read-out: EC50 for Inhibition of Protein Phosphorylation (95% CI), S6RP S235/S236): 0.5 nM | Animal Weight, Mean ([3]; Ba/F3-KIF5B::RET G810R (Fig 8f), Selpercatinib 10 mg/kg BID, day 1): 27.18 g | Animal Weight, Mean ([3]; Ba/F3-KIF5B::RET G810R (Fig 8f), Selpercatinib 10 mg/kg BID, day 4): 26.90 g | Animal Weight, Mean ([3]; Ba/F3-KIF5B::RET G810R (Fig 8f), Selpercatinib 10 mg/kg BID, day 8): 26.00 g | Animal Weight, Mean ([3]; Ba/F3-KIF5B::RET G810R (Fig 8f), Selpercatinib 10 mg/kg BID, day 11): 26.60 g | Animal Weight, Mean ([3]; Ba/F3-KIF5B::RET G810R (Fig 8f), Selpercatinib 10 mg/kg BID, day 15): 26.48 g | Animal Weight, Mean ([3]; Ba/F3-KIF5B::RET G810R (Fig 8g), Selpercatinib 30 mg/kg BID, day 1): 25.8 g | Animal Weight, Mean ([3]; Ba/F3-KIF5B::RET G810R (Fig 8g), Selpercatinib 30 mg/kg BID, day 4): 26.9 g | Animal Weight, Mean ([3]; Ba/F3-KIF5B::RET G810R (Fig 8g), Selpercatinib 30 mg/kg BID, day 8): 27.0 g | Animal Weight, Mean ([3]; Ba/F3-KIF5B::RET G810R (Fig 8g), Selpercatinib 30 mg/kg BID, day 11): 26.8 g | Animal Weight, Mean ([3]; Ba/F3-KIF5B::RET G810R (Fig 8g), Selpercatinib 30 mg/kg BID, day 15): 26.8 g | Animal Weight (g), Mean ([3]; 3 mg/kg BID, day 1): 28.0 g | Animal Weight (g), Mean ([3]; 3 mg/kg BID, day 4): 28.1 g | Animal Weight (g), Mean ([3]; 3 mg/kg BID, day 8): 28.6 g | Animal Weight (g), Mean ([3]; 3 mg/kg BID, day 11): 28.6 g | Animal Weight (g), Mean ([3]; 3 mg/kg BID, day 15): 28.4 g | Animal Weight (g), Mean ([3]; 10 mg/kg BID, day 1): 27.7 g | Animal Weight (g), Mean ([3]; 10 mg/kg BID, day 4): 27.7 g | Animal Weight (g), Mean ([3]; 10 mg/kg BID, day 8): 28.2 g | Animal Weight (g), Mean ([3]; 10 mg/kg BID, day 11): 28.7 g | Animal Weight (g), Mean ([3]; 10 mg/kg BID, day 15): 28.6 g | Animal Weight (g), Mean ([3]; 30 mg/kg BID, day 1): 28.1 g | Animal Weight (g), Mean ([3]; 30 mg/kg BID, day 4): 27.9 g | Animal Weight (g), Mean ([3]; 30 mg/kg BID, day 8): 29.0 g | Animal Weight (g), Mean ([3]; 30 mg/kg BID, day 11): 29.6 g | Animal Weight (g), Mean ([3]; 30 mg/kg BID, day 15): 29.2 g | Animal Weight (g), Mean ([3]; 100 mg/kg BID, day 1): 26.8 g | Animal Weight (g), Mean ([3]; 100 mg/kg BID, day 4): 26.1 g | Animal Weight (g), Mean ([3]; 100 mg/kg BID, day 8): 23.3 g | Animal Weight ([3]; LUAD-0077AS1 PDX, Selpercatinib 10 mg/kg BID, treatment day 0): 24 g and 25 g and 21 g and 23 g (2×) | Animal Weight ([3]; LUAD-0077AS1 PDX, Selpercatinib 10 mg/kg BID, treatment day 4): 24 g (3×) and 21 g and 23 g | Animal Weight ([3]; LUAD-0077AS1 PDX, Selpercatinib 10 mg/kg BID, treatment day 7): 23 g (3×) and 21 g and 24 g | Animal Weight ([3]; LUAD-0077AS1 PDX, Selpercatinib 10 mg/kg BID, treatment day 11): 24 g (2×) and 23 g (2×) and 21 g | Animal Weight ([3]; LUAD-0077AS1 PDX, Selpercatinib 10 mg/kg BID, treatment day 14): 23 g and 24 g (2×) and 21 g and 25 g | Animal Weight ([3]; LUAD-0077AS1 PDX, Selpercatinib 10 mg/kg BID, treatment day 19): 25 g and 23 g and 22 g and 26 g and 24 g | Animal Weight ([3]; LUAD-0087AS2 PDX, Selpercatinib 30 mg/kg BID, treatment day 0): 27 g (4×) and 28 g | Animal Weight ([3]; LUAD-0087AS2 PDX, Selpercatinib 30 mg/kg BID, treatment day 3): 26 g (3×) and 28 g and 27 g | Animal Weight ([3]; LUAD-0087AS2 PDX, Selpercatinib 30 mg/kg BID, treatment day 7): 27 g (3×) and 26 g and 28 g | Animal Weight ([3]; LUAD-0087AS2 PDX, Selpercatinib 30 mg/kg BID, treatment day 10): 27 g (3×) and 26 g (2×) | Animal Weight ([3]; LUAD-0087AS2 PDX, Selpercatinib 30 mg/kg BID, treatment day 14): 26 g (3×) and 27 g (2×) | Animal Weight ([3]; LUAD-0087AS2 PDX, Selpercatinib 30 mg/kg BID, treatment day 17): 27 g (4×) and 26 g | Animal Weight ([3]; LUAD-0087AS2 PDX, Selpercatinib 30 mg/kg BID, treatment day 21): 28 g and 27 g (2×) and 26 g and 25 g | Animal Weight ([3]; LUAD-0087AS2 PDX, Selpercatinib 30 mg/kg BID, treatment day 24): 28 g (2×) and 27 g (2×) and 26 g | Animal Weight ([3]; LUAD-0087AS2 PDX, Selpercatinib 30 mg/kg BID, treatment day 29): 26 g (2×) and 27 g and 28 g (2×) | Animal Weight ([3]; LUAD-0087AS2 PDX, Selpercatinib 30 mg/kg BID, treatment day 32): 26 g (2×) and 28 g (3×) | Animal Weight ([3]; LUAD-0087AS2 PDX, Selpercatinib 30 mg/kg BID, treatment day 35): 26 g (2×) and 28 g and 27 g (2×) | Animal Weight ([3]; LUAD-0087AS2 PDX, Selpercatinib 30 mg/kg BID, treatment day 38): 23 g (2×) and 28 g and 29 g and 26 g | Animal Weight ([3]; LUAD-0087AS2 PDX, Selpercatinib 30 mg/kg BID, treatment day 42): 27 g (4×) and 26 g
